Here are results for 1 molecule from patent US10647680B2, “Urea compound, preparation method therefor and medical use thereof” (Ancureall Pharmaceutical (Shanghai) Co., Ltd., priority 2016, dated 2020).

What all share (assay type): in vitro ADME
Data set [1] is described as follows: Metabolic stability in rat liver microsomes. As to conditions: rat liver microsome. The protocol: The experiment on the compound stability in rat liver microsomes was performed using compound 77 of the present invention as a representative example.
Procedure: The mixed reaction solution containing reducing coenzyme II (1 mg/ml, Roche 10621706001), rat liver microsomes (0.5 mg/ml, BD Gentest), phosphate buffer (0.1M) and ionized water was prepared according to a certain ratio, and then the reaction solution was placed in a 37° C. water bath and preheated for 2 minutes. A certain amount of compound 77 or reference substance was added to the prepared mixed reaction solution to start the reaction. In the final reaction system, the concentration of compound 77 or the positive control midazolam (National Institutes for Food and Drug Control) was 2 uM, and water was used instead of reducing coenzyme II as a negative control. […] The ratio of mean peak area of compound 77 to the mean peak area of internal standard at each time point was calculated, and the percentage of this ratio to that at time point 0 was calculated, and then change in this percentage was used to indicate the metabolic stability of the compound 77. […]

A further data set deals with T1, CYP2D6 (Homo sapiens, UniProt P10635).
T1 construct: human liver microsomes (BD Gentest) (0.5 mg/mL); tissue BD Gentest; host or cells: human liver microsomes
Put plainly: P450 enzyme inhibition, CYP2D6. As to conditions: human liver microsomes. The protocol:
(§1) Eight cytochrome p450 enzyme inhibition reactions of human liver microsomes were performed using compound 77 of the present invention as a representative example.
(§2) The main reaction systems and processes: in 37° C. water bath, the test compounds (7 concentrations, 0, 0.25, 0.5, 5, 10, 25, and 50 uM; the final methanol concentration was 1% in the system), human liver microsomes (BD Gentest) (0.5 mg/mL) and reducing coenzyme II (Roche 10621706001) (1 mg/mL) and the corresponding cytochrome p450 enzyme probe substrate were co-incubated for 5 to 20 minutes. Among them, (1) the probe substrate for CYP1A2 was Phenacetin ([…]) (Sigma), and the selective inhibitor alpha-naphthoflavone (2 uM) (Sigma) was for parallel detection as positive control, and they were incubated for 20 minutes. (2) The probe substrate for CYP2b6 was Bupropion (40 uM) (Sigma) and the selective inhibitor Ticlopidine (10 uM) (Sigma) was for parallel detection as positive control, and they were incubated for 20 minutes. (3) The probe substrate of CYP2C8 was Amodiaquine (1 uM) (Sigma), and the selective inhibitor Montelukast (10 uM) (Sigma) was for parallel detection as positive control, and they were incubated for 20 minutes. (4) The probe substrate for CYP2C9 was Diclofenac (2.5 uM) (Sigma), and the selective inhibitor Sulphaphenazole (10 uM) (Sigma) was for parallel detection as positive control, and they were incubated for 20 minutes. (5) The probe substrate for CYP2C19 was Mephenytoin (40 uM) (Sigma), and the selective inhibitor Ticlopidine (10 uM) (Sigma) was for parallel detection as positive control, and they were incubated for 20 minutes. (6) The probe substrate for CYP2D6 was Dextromethorphan (5 uM) (Sigma), and the selective inhibitor Quinidine (10 uM) (Sigma) was for parallel detection as positive control, and they were incubated for 20 minutes. (7) The probe substrates for CYP3A4-T and CYP3A4-M were Testosterone (5 uM) (Sigma) and Midazolam (5 uM) (Sigma), respectively, and the selective inhibitor was Ketoconazole (1 uM) (Sigma), they were detected in parallel as positive control, and incubated for 5 minutes. The reaction system was quenched by adding methanol containing the corresponding internal standard. The internal standard compound was Tolbutamide (Sigma). The concentration of the corresponding metabolites was determined by LC/MS/MS. For the data analysis, the decrease in peak area of the metabolite of the sample after addition of compound 77 relative to the peak area of the metabolite of the solvent control sample was used to calculate the IC50 (concentration of the test substance at 50% inhibition). The percentages of peak areas of metabolites of CYP1A2, CYP2B6, CYP2C8, CYP2C9, 15CYP2C19, CYP2D6, CYP3A4-T, and CYP3A4-M probe substrates after addition of different concentrations of compound 77 and selective inhibitors relative to the solvent control peak areas were shown in the Table 7.

Another data set concerns the target T2, CYP1A2 (Homo sapiens, UniProt P05177).
T2 construct: human liver microsomes (BD Gentest) (0.5 mg/mL); tissue BD Gentest; host or cells: human liver microsomes
T2 sequence (P05177 1-516): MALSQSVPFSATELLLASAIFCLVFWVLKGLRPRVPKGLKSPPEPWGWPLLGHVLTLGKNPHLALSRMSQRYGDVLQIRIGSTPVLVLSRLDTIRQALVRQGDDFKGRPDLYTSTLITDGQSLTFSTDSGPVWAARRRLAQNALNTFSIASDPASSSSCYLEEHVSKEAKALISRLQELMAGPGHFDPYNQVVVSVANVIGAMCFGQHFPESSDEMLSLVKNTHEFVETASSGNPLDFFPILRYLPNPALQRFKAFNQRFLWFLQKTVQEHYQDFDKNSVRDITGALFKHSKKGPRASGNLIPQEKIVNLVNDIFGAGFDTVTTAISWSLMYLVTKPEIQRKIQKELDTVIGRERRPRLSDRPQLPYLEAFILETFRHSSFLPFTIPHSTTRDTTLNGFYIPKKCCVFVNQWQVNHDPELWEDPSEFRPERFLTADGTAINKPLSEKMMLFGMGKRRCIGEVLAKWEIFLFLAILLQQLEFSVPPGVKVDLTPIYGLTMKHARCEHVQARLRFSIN
In words: P450 enzyme inhibition, CYP1A2. As to conditions: human liver microsomes. The protocol:
as §1, §2
For orientation: Liver microsomes are vesicles of endoplasmic reticulum, rich in cytochrome P450 enzymes.

T1 sequence (P10635 whole entry): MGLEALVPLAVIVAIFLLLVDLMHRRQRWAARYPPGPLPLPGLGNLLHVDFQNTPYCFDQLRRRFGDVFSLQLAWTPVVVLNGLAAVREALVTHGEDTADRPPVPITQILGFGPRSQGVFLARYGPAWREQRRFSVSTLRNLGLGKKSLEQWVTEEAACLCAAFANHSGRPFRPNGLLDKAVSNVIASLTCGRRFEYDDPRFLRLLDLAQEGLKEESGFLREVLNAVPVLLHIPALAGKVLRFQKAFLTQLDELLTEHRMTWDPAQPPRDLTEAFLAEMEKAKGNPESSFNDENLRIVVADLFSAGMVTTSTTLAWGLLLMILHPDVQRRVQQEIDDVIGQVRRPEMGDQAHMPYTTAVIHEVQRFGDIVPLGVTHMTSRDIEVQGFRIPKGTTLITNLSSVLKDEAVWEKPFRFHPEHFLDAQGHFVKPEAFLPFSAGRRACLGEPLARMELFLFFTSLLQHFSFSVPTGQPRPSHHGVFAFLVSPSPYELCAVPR

A word on the half-life: it is the time needed for the level to fall by half in the phase considered. Low readings indicate rapid decline, high ones slow decline. With `COCCOc1ccc2c(c1)ncn2-c1ccc(NC(=O)Nc2cc(C(C)(C)C)n[nH]2)cc1` [Compound 77, 1-(5-tert-butyl-2H-pyrazol-3-yl)-3-{4-[5-(2-methoxyl-ethoxyl)-benzimidazol-1-yl]-phenyl}-urea], the elimination rate constant in data set [1] (2 uM) was 0.0031. The molecule further returned a half-life at 2 uM in data set [1] (rat liver microsomes) of 224 min. The “CYP2D6 Remaining %” value at CYP2D6 (Concentration 0.25 uM) was found to be 105.1%; on CYP2D6 (Concentration 0.5 uM), 97.7%; on CYP2D6 (Concentration 5 uM), 98.8%; on CYP2D6 (Concentration 10 uM) it was 96.3%; on CYP2D6 (Concentration 25 uM), 90.3%; at CYP2D6 (Concentration 50 uM) it was 64.9%. The IC50 on CYP2D6 (read-out: half-inhibitory concentration (IC50) of CYP2D6) and at CYP1A2 (read-out: half-inhibitory concentration (IC50) of CYP1A2) was more than 50 µM in each case. Moreover, the “CYP1A2 Remaining %” value at CYP1A2 (Concentration 0.25 uM) amounted to 95.7%; on CYP1A2 (Concentration 0.5 uM), 99.8%; on CYP1A2 (Concentration 5 uM) it was 94.1%; on CYP1A2 (Concentration 10 uM) it was 92.1%; on CYP1A2 (Concentration 25 uM) it was 80.9%; on CYP1A2 (Concentration 50 uM), 63.4%.
